Data taken from US20220170119A1, “Signaling Pathway of Cannabidiol (CBD) for Prevention and Treatment of COVID-19” (Hemix Biotech Limited, priority 2020, published 2022).

What was measured:
wild type MEFs = test: Proliferation rate (population doubling level) of wild type MEFs; type: cell-based, mouse
Procedure: (§1) In the step of determining cells' proliferation rate and the optimal concentration of molecules, the primary mouse embryonic fibroblasts (MEFs) at passage 3 were counted by using LUNA-II Automated Cell Counter. 1.0×10^5 cells were seeded to a well of 6-well plate. The cells were treated with DMSO as control, 10 μM or 50 μM CBD.
(§2) Referring to FIG. 2, after 4-day and 8-day treatment, the cells were counted again using automated cell counter. The population doubling level (PDL), which reflects the proliferation rate of cells, was calculated by the formula: n=3.32 (log UCY−log I)+X, where n=the PDL number, UCY=the cell yield at that time point, I=the initial cell number, and X=the doubling level of the cells used to initiate the subculture being quantitated.

Lamin A 609 MEFs = test: Proliferation rate (population doubling level) of Lamin A 609 MEFs; type: cell-based, mouse
Procedure: as §1, §2

TRIB3 [1] = test: RNA sequencing of TRIB3 expression in wild type MEFs; type: cell-based, mouse; conditions: wild type MEFs receiving CBD treatment
Procedure: (§3) RNA sequencing is carried out wherein the RNA samples were extracted using TRIzol and kept in 75% ethanol in diethylpyrocarbonate (DEPC) water at −20° C. For each condition, two biological replicates were prepared for RNA sequencing. The RNA samples were dissolved in DEPC water and carried out quality control analysis. The RNA quantitation was done using Nanodrop™ and Agilent® 2100 Bioanalyzer. The RNA integrity was measured using Agilent® 2100 Bioanalyzer. The RNA purity was measured using agarose gel electrophoresis and Agilent® 2100 Bioanalyzer.
(§4) The samples that had concentration over 50 ng/μl for volume over 20 μl, RIN value over 6.3, and OD260/280 value over 2.0 were considered to pass the quality control analysis and were used for RNA sequencing. Illumina sequencing system was used for paired-end reads of read lengths PE150. 6 GB of raw data was acquired from each sample. […]
(§5) In the step of RNA sequencing, the RNA samples were extracted using TRIzol and kept in 75% ethanol in diethylpyrocarbonate (DEPC) water at −20° C. […] The RNA quantitation was done using Nanodrop™ and Agilent® 2100 Bioanalyzer. The RNA integrity was measured using Agilent® 2100 Bioanalyzer. The RNA purity was measured using agarose gel electrophoresis and Agilent® 2100 Bioanalyzer. […]

TRIB3 [2] = test: RNA sequencing of TRIB3 expression in Lamin A 609 MEFs; type: cell-based, mouse; conditions: premature aging Lamin A 609 MEFs, CBD treatment
Procedure: as §3, §4, §5

nCoV virus = test: nCoV infection of Huh7 cells, qPCR of viral gene copy number; type: cell-based
Procedure: (§6) To examine CBD inhibitory effects on nCoV infection, Huh7 cells were chosen. 2.0×10^5 cells/well of Huh7 cells were seeded to 24-well plate. The Huh7 cells were treated with DMSO as control, 2.5 μM, 5 μM or 10 μM CBD for 1 hour. The Huh7 cells were then infected with 0.01 MOI of nCoV virus for 1 hour. The inoculum was discarded and the plate was washed with 1 mL PBS twice. The Huh7 cells were then cultured in DMEM/F-12 and treated with DMSO as control, 2.5 μM, 5 μM or 10 μM CBD. After 2, 24 and 48 hours after infection, the supernatant and cell lysate were collected for qPCR analysis for determination of viral gene copy number.
as §6, with “In the step of examining CBD” for “To examine CBD”, “nCoV infection in” for “nCoV infection,”, “Huh7 cells,” for “Huh7 cells were chosen.”

SARS-Cov-2 pseudovirus = test: Luciferase assay of SARS-Cov-2 pseudovirus infection of Caco2 cells; type: cell-based
Caco-2 cells = test: Proliferation rate (PDL) of Caco-2 cells; type: cell-based, human; conditions: 5 μM CBD
Procedure: Referring to FIG. 8, which shown the proliferation rate of Caco-2 cells with CBD treatment. We have compared the population doubling level (PDL) of Caco-2 cells with CBD treatment at four different concentration, namely, 0 μM CBD, 5 μM CBD, 10 μM CBD, and 20 μM CBD. […] Therefore, the COVID-19 virus suppression effect observed in FIG. 7 was not caused by toxicity of CBD.

Caco2 cells = test: KI67 expression in Caco2 cells; type: cell-based, human; conditions: 5 μM CBD
Procedure: Referring to FIG. 9, to confirm that the COVID-19 virus suppression effect observed in FIG. 7 was not caused by toxicity of CBD, we have analyzed the expression of KI67 with CBD treatment at the concentration of 5 μM CBD. […] It is confirmed that the COVID-19 virus suppression effect observed in FIG. 7 was not caused by toxicity of CBD.

TRIB3 [3] = test: TRIB3 expression level in Caco-2 cells (FIG. 10); type: cell-based, human; conditions: Caco2 cells, CBD treatment (FIG. 10)
From the text: (§7) Referring to FIG. 10, we have further analyzed the mechanism of CBD treatment on Caco-2 cells by comparing the expression level of TRIB3 and AFT5 in Caco-2 cells by the CBD treatment. […] Similarly, ATF5 was also identified by the RNA sequencing results and it is closely associated with TRIB3.

ATF5 [4] = test: ATF5 expression level in Caco-2 cells (FIG. 10); type: cell-based, human; conditions: Caco2 cells, CBD treatment (FIG. 10)
From the text: as §7

TRIB3 [5] = test: TRIB3 expression in Caco2 cells by immunofluorescence staining (FIG. 11); type: cell-based, human; conditions: 5 μM CBD (FIG. 11)
From the text: (§8) Referring to FIG. 11, we have further analyzed the mechanism of CBD treatment on Caco-2 cells by comparing the expression level of TRIB3 and AFT5 in Caco2 cells by the CBD treatment. Compared to FIG. 10, we have measured the expression of TRIB3 and AFT5 by immunofluorescence staining.

ATF5 [6] = test: ATF5 expression in Caco2 cells by immunofluorescence staining (FIG. 11); type: cell-based, human; conditions: 5 μM CBD (FIG. 11)
From the text: as §8

SARS-CoV-2 = test: qPCR of viral gene copy in SARS-CoV-2 infected golden hamster; type: in vivo
From the text: Referring to FIG. 12, we tested the CBD's anti-COVID-19 effects in nasal turbinate of golden hamster by qPCR analysis of viral gene copy in nasal turbinate of SARS-CoV-2 infected golden hamster upon CBD treatment.

lung fibrosis = test: Masson Trichrome staining of Covid-19 infected golden hamster lung; type: in vivo; conditions: lung of Covid-19 infected golden hamster, compared to control
From the text: Referring to FIG. 14, we have further tested CBD's anti-COVID-19 effects by analysis of Masson Trichrome staining of Covid-19 infected golden hamster lung treated with control or CBD.

LMNA^G609G/G609G mice = test: CBD treatment in LMNA G609G/G609G mice (health span); type: in vivo, mouse; conditions: IP twice a week
Procedure: CBD was dissolved in 5% DMSO and 5% polyethylene glycol (PEG) in sterile saline and stored at −80° C. for up to 1 month. 2 months old LMNA^G609G/G609G mice were selected used. The mice then received an intraperitoneal injection (IP) twice a week until they reached the humane point.
In step of CBD treating in mice, 2 months old LMNA^G609G/G609G mice were selected and used. They received an intraperitoneal injection (IP) twice a week until they reached the humane point. Different dosages were used for the injection; 50 mg/kg of CBD was identified as the optimal dosage with the greatest extend in health span of the treated mice. CBD was dissolved in 5% DMSO and 5% polyethylene glycol (PEG) in sterile saline and stored at −80° C. for up to 1 month.

Covid-19 = conditions: human, in vivo; cited from earlier work

Compound: C=C(C)[C@@H]1CCC(C)=C[C@H]1c1c(O)cc(CCCCC)cc1O [CBD, Cannabidiol]
- population doubling level (PDL) (wild type MEFs; high dosage 50 μM CBD): significantly decreased
- population doubling level (PDL) (wild type MEFs; optimal dosage 10 μM CBD): significantly increased
- population doubling level (PDL) (Lamin A 609 MEFs; high dosage 50 μM CBD): significantly decreased
- population doubling level (PDL) (Lamin A 609 MEFs; optimal dosage 10 μM CBD): significantly increased
- TRIB3 expression (fpkm, RNA sequencing) (TRIB3 [1]): upregulated
- expression levels of TRIB3 (RNA sequencing) (TRIB3 [2]): increase
- nCoV virus infection (viral gene copy number in cell lysate and supernatant) (nCoV virus; Huh7 cells, 2.5, 5 or 10 μM CBD, 0.01 MOI, 2, 24 and 48 hours after infection): inhibited
- optimal dosage of CBD (nCoV virus; Huh7 cells, inhibition of nCoV infection): 5 µM
- reduction of SARS-Cov-2 pseudovirus infection (SARS-Cov-2 pseudovirus): 72%
- proliferation of Caco-2 cells shown by population doubling level (PDL) (Caco-2 cells): didn't affect proliferation
- proliferation of Caco2 cells shown by KI67 (Caco2 cells): didn't affect proliferation
- expression level of TRIB3 (TRIB3 [3]): significantly upregulate
- expression level of ATF5 (ATF5 [4]): significantly upregulate
- TRIB3 level of expression, immunofluorescence staining (TRIB3 [5]): increased
- ATF5 level of expression, immunofluorescence staining (ATF5 [6]): increased
- SARS-Cov-2 infection (viral gene copy) in lung (SARS-CoV-2; lung): suppress
- SARS-CoV-2 infection (viral gene copy) in nasal turbinate (SARS-CoV-2; nasal turbinate): reduced
- area and intensity of blue stain (fibrosis), Masson Trichrome staining (lung fibrosis): significantly lowered
- optimal dosage with the greatest extend in health span (LMNA^G609G/G609G mice): 50 mg/kg

Compound: NC(=O)c1nc(F)c[nH]c1=O [Favipiravir]
- efficacy in treating COVID-19 (Covid-19): not conclusive

Compound: Ivermectin
- efficacy in treating COVID-19 (Covid-19): not conclusive

Compound: Lopinavir-ritonavir
- efficacy in treating COVID-19 (Covid-19): not conclusive
